Data published in the NIST ThermoML archive (doi:10.1021/je8009336).

Columns and labels:
[1] = Liquid; for mass density: Vibrating tube method; for speed of sound: Vibrating Tube Densimeter
[2] = refractive index (Na D-line) (dimensionless); settings: 101.33 kPa, Liquid, Standard Abbe refractometry
[3] = xn = mol fraction of the nth substance listed; settings: 313.15 K, 101 kPa, Liquid; for speed of sound: Vibrating Tube Densimeter; for mass density: Vibrating tube method
[4] = refractive index (Na D-line) (dimensionless); xn = mol fraction of the nth substance listed; settings: 313.15 K, 101 kPa, Liquid, Standard Abbe refractometry

CCc1ccccc1 [ethylbenzene]
[1]
Settings | mass density, 298.15 K [kg/m3] | mass density, 313.15 K [kg/m3] | speed of sound, 313.15 K [m/s]
101 kPa | – | 849.3 | 1257.3
101.33 kPa | 862.5 | – | –

[2]
Settings | refractive index
298.15 K | 1.49304
313.15 K | 1.48538

CCc1ccccc1 [ethylbenzene] + C1CCCC1
x2 = 0
Settings | mass density [kg/m3] | refractive index | speed of sound [m/s]
[3] | 849.3 | – | 1257.3
[4] | – | 1.48538 | –

CCc1ccccc1 [ethylbenzene] + C1CCCCC1
Settings | mass density, [3] [kg/m3] | refractive index, [4] | speed of sound, [3] [m/s]
x2 = 0 | 849.3 | 1.48538 | 1257.3
x2 = 0.0515 | 844.7 | 1.4814 | 1251.8
x2 = 0.0976 | 840.5 | 1.47828 | 1247
x2 = 0.2494 | 826.7 | 1.46788 | 1231.8
x2 = 0.3647 | 816.2 | 1.45999 | 1221.3
x2 = 0.3855 | 814.3 | 1.45831 | 1219.3
x2 = 0.5028 | 803.6 | 1.45026 | 1209.4
x2 = 0.6009 | 794.6 | 1.44349 | 1201.9
x2 = 0.7005 | 785.6 | 1.43614 | 1195
x2 = 0.7976 | 776.9 | 1.42925 | 1189.2
x2 = 0.9017 | 768 | 1.42208 | 1184.5
x2 = 0.9504 | 763.8 | 1.41865 | 1182.8

CCc1ccccc1 [ethylbenzene] + CC1CCCCC1
x2 = 0
Settings | mass density [kg/m3] | refractive index | speed of sound [m/s]
[3] | 849.3 | – | 1257.3
[4] | – | 1.48538 | –

CC1CCCCC1 [methylcyclohexane]
[1]
Settings | mass density, 298.15 K [kg/m3] | mass density, 313.15 K [kg/m3] | speed of sound, 313.15 K [m/s]
101 kPa | – | 752 | 1149.6
101.33 kPa | 764.9 | – | –

[2]
Settings | refractive index
298.15 K | 1.42053
313.15 K | 1.41272

CC1CCCCC1 [methylcyclohexane] + CCc1ccccc1
Settings | mass density, [3] [kg/m3] | refractive index, [4] | speed of sound, [3] [m/s]
x1 = 0.0509 | 843.8 | 1.48108 | 1249.9
x1 = 0.0975 | 838.9 | 1.4774 | 1243.4
x1 = 0.1957 | 828.6 | 1.46965 | 1230.3
x1 = 0.2794 | 820 | 1.46339 | 1219.8
x1 = 0.4006 | 807.9 | 1.45428 | 1205.4
x1 = 0.4962 | 798.4 | 1.44736 | 1194.9
x1 = 0.5977 | 788.6 | 1.44003 | 1184.5
x1 = 0.6968 | 779.2 | 1.43303 | 1174.9
x1 = 0.7988 | 769.7 | 1.42601 | 1165.7
x1 = 0.8973 | 760.9 | 1.41941 | 1157.5
x1 = 0.9483 | 756.4 | 1.41609 | 1153.5
x1 = 1 | 752 | 1.41272 | 1149.6

CC1CCCCC1 [methylcyclohexane] + Cc1ccccc1
Settings | mass density, [3] [kg/m3] | refractive index, [4] | speed of sound, [3] [m/s]
x1 = 0.0488 | 842.1 | 1.48065 | 1233.3
x1 = 0.0977 | 836.1 | 1.4763 | 1226
x1 = 0.1967 | 824.6 | 1.4675 | 1212.4
x1 = 0.2969 | 813.6 | 1.45909 | 1200.1
x1 = 0.3751 | 805.5 | 1.45314 | 1191.7
x1 = 0.5049 | 792.7 | 1.44348 | 1179.2
x1 = 0.5986 | 784 | 1.43702 | 1171.5
x1 = 0.7022 | 774.9 | 1.43008 | 1164
x1 = 0.8016 | 766.8 | 1.42397 | 1158.1
x1 = 0.9003 | 759.1 | 1.41817 | 1153.2
x1 = 0.9487 | 755.5 | 1.41549 | 1151.2
x1 = 1 | 752 | 1.41272 | 1149.6

CC1CCCCC1 [methylcyclohexane] + c1ccccc1
Settings | mass density, [3] [kg/m3] | refractive index, [4] | speed of sound, [3] [m/s]
x1 = 0.0486 | 849.3 | 1.48201 | 1220.3
x1 = 0.0982 | 841.3 | 1.47621 | 1211.2
x1 = 0.1995 | 826.7 | 1.46566 | 1195.3
x1 = 0.2999 | 813.5 | 1.45619 | 1182.5
x1 = 0.4038 | 801.3 | 1.44745 | 1172
x1 = 0.4998 | 791.3 | 1.44043 | 1164.6
x1 = 0.612 | 780.7 | 1.43297 | 1158.1
x1 = 0.7053 | 772.6 | 1.42729 | 1154.2
x1 = 0.7994 | 765.3 | 1.42214 | 1151.5
x1 = 0.8991 | 758.4 | 1.41728 | 1149.9
x1 = 0.953 | 754.8 | 1.4148 | 1149.5
x1 = 1 | 752 | 1.41272 | 1149.6

Cc1ccccc1 [toluene]
[1]
Settings | mass density, 298.15 K [kg/m3] | mass density, 313.15 K [kg/m3] | speed of sound, 313.15 K [m/s]
101 kPa | – | 848.2 | 1240.9
101.33 kPa | 862.1 | – | –

[2]
Settings | refractive index
298.15 K | 1.49399
313.15 K | 1.48509

Cc1ccccc1 [toluene] + C1CCCC1
x2 = 0
Settings | mass density [kg/m3] | refractive index | speed of sound [m/s]
[3] | 848.2 | – | 1240.9
[4] | – | 1.48509 | –

Cc1ccccc1 [toluene] + C1CCCCC1
x2 = 0
Settings | mass density [kg/m3] | refractive index | speed of sound [m/s]
[3] | 848.2 | – | 1240.9
[4] | – | 1.48509 | –

Cc1ccccc1 [toluene] + CC1CCCCC1
x2 = 0
Settings | mass density [kg/m3] | refractive index | speed of sound [m/s]
[3] | 848.2 | – | 1240.9
[4] | – | 1.48509 | –
